The results in this text go back to patent US20240189287A1, “PERIPHERALLY RESTRICTED CB1 RECEPTOR BLOCKERS AND USES THEREOF” (BIONANOSIM (BNS) LTD, priority 2021, published 2024).

Each structure is given as a SMILES string. “Also recorded” adds a separate entry of the source. Read-outs that look alike come from different tables or passages of the source.

The nature of series [1]: Tissue distribution: brain, plasma and liver levels after oral dosing. It counts as in vivo, C57BL/6J mice. The procedure:
Tissue distribution and pharmacokinetics: Tissue levels of antagonist: 3 male C57BL/6J mice (7-9 weeks, PO group) were used in this study. Mice were fasted prior to administration of test article and had access to food 4 hours post dosing. Appropriate amount of test article was accurately weighted and mixed with the appropriate volume of vehicle to get a clear oral solution. The formulation was prepared on the day of dosing, and mice were dosed via oral gavage up to 4 hr after formulation was prepared. After 1 hour, mice were scarified and about 200 μL blood was collected from cardiac puncture followed by plasma preparation. Brain and liver were removed and further processed. Dose formulation and sample analysis was performed by LC-MS/MS method.
The peripherality of selected BB8 conjugates (BNS) was evaluated in vivo measuring their respective brain, plasma, and liver levels 1 hr following 10 mg/kg oral administration.

In another series the target is CYP2C19 (Homo sapiens (Human), UniProt P33261). Briefly: CYP inhibition in human liver microsomes. It counts as in vitro ADME. The procedure:
(§1) To evaluate the in vitro CYP inhibition of BNS808 and BNS822, the compounds were tested in human liver microsomes that are rich in drug metabolizing enzymes, including CYPs 1A2, 2C9, 2C19, 2D6, 3A4.
For orientation: Liver microsomes are vesicles of endoplasmic reticulum, rich in cytochrome P450 enzymes.

A further series addresses CYP 2D6 (Homo sapiens (Human), UniProt P10635). Briefly: CYP inhibition in human liver microsomes. It counts as in vitro ADME. The method, then: as §1
The target of the next series is CYP2C9 (Homo sapiens (Human), UniProt P11712). The experiment in a line: CYP inhibition in human liver microsomes. It counts as in vitro ADME. The method, then: as §1
Series [2] concerns DIO (Diet-Induced-Obese) mice. The experiment in a line: In vivo efficacy study in Diet Induced Obesity (DIO) model. Details: species or system C57BL/6J mice. The method, then:
In vivo efficacy study in Diet Induced Obesity (DIO) model: Male C57BL/6J mice were kept on a high fat diet for 24 weeks. […] Thereafter, metabolic assessment was performed in order to evaluate the efficacy of the treatment. The efficacy was evaluated by measurements of the following parameters: • 1. Body weight and food intake, • 2. Total energy expenditure (TEE) and respiratory quotient (RQ). • 3. Fat and Carbohydrate oxidation (FO and CHO, respectively), • 4. Total ambulation, • 5. Glucose homeostasis, • 6. Hepatic Steatosis and Liver Injury, • 7. Lipid profile, • 8. Kidney function.
Animals: The experimental protocol used is approved by the Institutional Animal Care and Use Committee of the Hebrew University. Male, 25 weeks old, C57BL/6J mice were purchased from Jackson laboratories. Mice were maintained under a 12-h light/dark cycle and fed ad libitum. To maintain diet-induced obesity, C57BL/6J mice were fed with high-fat diet (HFD) (60% of calories from fat, 20% from protein, and 20% from carbohydrates; Research Diet, D12492) for overall 30 weeks.
[…] Body weight and food intake were monitored daily. Total body fat and lean masses were determined by EchoMRI-100H™ (Echo Medical Systems LLC, Houston, TX, USA). 24 h urine was collected 2-4 days before euthanasia using mouse metabolic cages (CCS2000 Chiller System, Hatteras Instruments, NC, USA). At the end of the observation period, mice were euthanized by a cervical dislocation under anesthesia, the kidneys, liver, brain, spleen, fat, and pancreas were removed, and samples were fixed in buffered 4% formalin (for histopathological analysis) or snap frozen (for biochemistry analysis). Trunk blood was collected for determining the biochemical parameters.
Multi-parameter metabolic assessment: Metabolic profile of the mice was assessed by using the Promethion High-Definition Behavioral Phenotyping System
(Sable Instruments, Inc., Las Vegas, NV, USA). Data acquisition and instrument control were performed using MetaScreen software version 2.2.18.0, and the obtained raw data were processed using ExpeData version 1.8.4 using an analysis script detailing all aspects of data transformation. Mice with free access to food and water were subjected to a standard 12 hr light/12 hr dark cycle, which consisted of 48 hr acclimation period followed by 24 hr of sampling. Respiratory gases were measured by using the GA-3 gas analyzer (Sable Systems, Inc., Las Vegas, NV, USA) using a pull-mode, negative-pressure system. Air flow was measured and controlled by FR-8 (Sable Systems, Inc., Las Vegas, NV, USA), with a set flow rate of 2000 mL/min. Water vapor was continuously measured and its dilution effect on O2 and CO2 was mathematically compensated. Effective mass was calculated by [body mass]0.75. Fat oxidation (FO) and carbohydrate oxidation (CHO) were calculated as FO=1.69×VO2−1.69×VCO2 and CHO=4.57×VCO2−3.23×VO2 and expressed as g/d/kg^eff.Mass.
Locomotor activity: Locomotor activity was quantified by the number of disruptions of infrared XYZ beam arrays with a beam spacing of 0.25 cm in the Promethion High-Definition Behavioral Phenotyping System (Sable Instruments, Inc., Las Vegas, NV, USA).
Glucose tolerance (ipGTT) test and insulin sensitivity tests (ipIST): Mice that fasted overnight were injected with glucose (1.5 g/kg, IP), followed by a tail blood collection at 0, 15, 30, 45, 60, 90, 120 min. Blood glucose levels were determined using the Elite glucometer (Bayer, Pittsburgh, PA). Two days later, mice were fasted for 6 hr before receiving insulin (0.75 U/kg, IP; Eli Lilly, DC, USA or Actrapid® vial, novo nordisk A/S, Denmark), and blood glucose levels were determined at the same intervals.
Creatinine clearance was calculated using urine and serum creatinine levels (CCr mL/h=Urine creatinine mg/dL×Urine volume/Serum creatinine mg/dL×24 hr). Fasting blood glucose was measured using the Elite glucometer (Bayer, Pittsburgh, PA). […]

A further series has as its system HepG2 Cells. The experiment in a line: Cell Viability Assay in HepG2 Cells at 72 h. In kind it is cell-based, human. The following applies: Homo sapiens, HepG2, 72 h. The method, then:
The liver plays a central role in transforming and clearing chemicals, and therefore is susceptible to toxicity of these agents. BNS808, BNS822 and other selected compounds were tested in the HepG2 assay using […] to evaluate cytotoxicity.

The next series addresses hERG potassium channels (Homo sapiens (Human), UniProt Q12809). Briefly: hERG assay, automated patch clamp (SyncroPatch 384PE). The note with it: for potential for cardiotoxicity (QT prolongation): acceptance criteria IC50>100* Ki; for IC50: whole cell hERG currents. In kind it is cell-based. Background: The hERG channel carries a current that helps repolarise heart muscle cells.

Series [3] has as its system Salmonella typhimurium (TA98, TA100). The note with it: for increase in reversion over the negative control: TA98 and TA100, with and without S9.
Where [4] appears, read: male, C57BL/6J, mouse, in vivo, po, 10 mg/kg.

Chain of CYP2C9 (P11712 whole entry): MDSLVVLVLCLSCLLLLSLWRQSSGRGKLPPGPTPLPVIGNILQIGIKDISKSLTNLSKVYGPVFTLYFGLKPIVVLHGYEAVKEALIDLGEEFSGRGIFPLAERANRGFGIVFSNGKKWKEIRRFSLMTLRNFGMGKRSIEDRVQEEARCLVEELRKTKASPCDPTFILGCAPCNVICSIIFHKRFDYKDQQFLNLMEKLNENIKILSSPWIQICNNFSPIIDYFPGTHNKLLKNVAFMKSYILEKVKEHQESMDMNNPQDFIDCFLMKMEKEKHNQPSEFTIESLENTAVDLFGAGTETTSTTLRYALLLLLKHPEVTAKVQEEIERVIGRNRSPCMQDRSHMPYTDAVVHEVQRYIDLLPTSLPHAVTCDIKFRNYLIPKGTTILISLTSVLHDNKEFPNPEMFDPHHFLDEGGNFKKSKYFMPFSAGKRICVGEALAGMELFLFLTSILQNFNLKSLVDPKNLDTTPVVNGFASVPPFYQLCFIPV
Chain of hERG potassium channels (Q12809 whole entry): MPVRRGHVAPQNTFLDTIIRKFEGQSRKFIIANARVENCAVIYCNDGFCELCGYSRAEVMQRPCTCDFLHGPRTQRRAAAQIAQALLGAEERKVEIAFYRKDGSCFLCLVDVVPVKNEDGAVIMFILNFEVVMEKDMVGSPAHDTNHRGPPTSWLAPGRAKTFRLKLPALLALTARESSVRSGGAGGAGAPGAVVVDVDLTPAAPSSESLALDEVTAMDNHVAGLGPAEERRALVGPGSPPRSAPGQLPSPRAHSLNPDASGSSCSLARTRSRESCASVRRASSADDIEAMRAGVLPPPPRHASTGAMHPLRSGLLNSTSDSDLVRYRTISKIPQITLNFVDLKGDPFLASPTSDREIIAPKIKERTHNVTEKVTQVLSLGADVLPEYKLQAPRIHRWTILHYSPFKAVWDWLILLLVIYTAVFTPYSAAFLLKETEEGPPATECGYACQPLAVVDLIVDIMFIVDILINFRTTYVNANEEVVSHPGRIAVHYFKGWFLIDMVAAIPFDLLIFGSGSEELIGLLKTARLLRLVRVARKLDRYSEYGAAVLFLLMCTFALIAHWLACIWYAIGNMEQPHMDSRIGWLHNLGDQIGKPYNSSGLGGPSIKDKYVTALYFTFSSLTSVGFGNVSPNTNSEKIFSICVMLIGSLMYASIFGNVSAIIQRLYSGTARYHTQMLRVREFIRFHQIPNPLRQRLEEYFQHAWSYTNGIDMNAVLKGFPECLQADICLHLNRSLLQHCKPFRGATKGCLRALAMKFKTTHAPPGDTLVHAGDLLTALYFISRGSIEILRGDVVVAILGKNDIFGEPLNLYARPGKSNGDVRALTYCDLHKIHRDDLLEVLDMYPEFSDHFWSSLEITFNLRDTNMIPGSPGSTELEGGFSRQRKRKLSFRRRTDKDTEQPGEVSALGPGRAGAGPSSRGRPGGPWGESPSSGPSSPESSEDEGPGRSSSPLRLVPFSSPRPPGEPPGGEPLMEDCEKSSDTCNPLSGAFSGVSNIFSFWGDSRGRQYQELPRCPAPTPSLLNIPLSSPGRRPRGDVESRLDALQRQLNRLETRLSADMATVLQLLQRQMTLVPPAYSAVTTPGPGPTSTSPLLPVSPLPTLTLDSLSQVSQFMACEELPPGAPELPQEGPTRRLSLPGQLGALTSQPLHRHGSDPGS
Chain of CYP2C19 (P33261 whole entry): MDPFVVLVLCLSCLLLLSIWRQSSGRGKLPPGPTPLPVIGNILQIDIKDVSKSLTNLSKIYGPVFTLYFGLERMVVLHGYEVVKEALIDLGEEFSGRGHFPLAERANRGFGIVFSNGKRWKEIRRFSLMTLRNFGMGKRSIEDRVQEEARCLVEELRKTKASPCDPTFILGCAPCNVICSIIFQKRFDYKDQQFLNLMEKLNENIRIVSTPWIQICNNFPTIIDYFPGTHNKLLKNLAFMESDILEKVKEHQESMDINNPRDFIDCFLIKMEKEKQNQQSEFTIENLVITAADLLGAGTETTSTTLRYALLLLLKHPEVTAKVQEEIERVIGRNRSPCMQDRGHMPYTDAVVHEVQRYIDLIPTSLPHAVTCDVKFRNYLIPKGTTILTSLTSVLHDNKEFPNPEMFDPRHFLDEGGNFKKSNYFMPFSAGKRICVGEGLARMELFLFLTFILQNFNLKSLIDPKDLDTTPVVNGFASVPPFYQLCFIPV
Chain of CYP 2D6 (P10635 whole entry): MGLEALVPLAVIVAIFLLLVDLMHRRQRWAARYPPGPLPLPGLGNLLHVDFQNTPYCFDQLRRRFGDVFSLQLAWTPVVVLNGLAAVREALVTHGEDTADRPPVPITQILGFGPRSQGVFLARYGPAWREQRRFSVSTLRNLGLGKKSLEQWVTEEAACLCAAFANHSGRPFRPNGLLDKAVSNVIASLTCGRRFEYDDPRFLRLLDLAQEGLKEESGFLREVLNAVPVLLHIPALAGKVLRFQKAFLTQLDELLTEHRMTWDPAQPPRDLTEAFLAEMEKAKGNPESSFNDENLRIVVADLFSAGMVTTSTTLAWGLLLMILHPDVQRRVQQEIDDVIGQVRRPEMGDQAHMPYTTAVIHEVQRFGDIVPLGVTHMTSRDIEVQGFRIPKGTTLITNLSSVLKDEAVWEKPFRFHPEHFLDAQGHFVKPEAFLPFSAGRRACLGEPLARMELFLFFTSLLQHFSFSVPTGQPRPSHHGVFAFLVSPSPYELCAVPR

On to `O=S(=O)(NC1CCCOc2c1nn(-c1ccccc1Cl)c2-c1ccc(Cl)cc1)c1ccc(Cl)cc1` (stereo not drawn) [BNS808, 4-chloro-N-[2-(2-chlorophenyl)-3-(4-chlorophenyl)-5,6,7,8-tetrahydrooxepino[3,2-c]pyrazol-8-yl]benzenesulfonamide], for which the Liver/Plasma ratio in series [1] (1 h post 10 mg/kg oral administration, C57BL/6J male mice) stood at 13.0. In series [1] (mouse, in vivo, 1 h post 10 mg/kg oral administration, C57BL/6J male mice, read-out: Brain/Plasma ratio), the Kp at 1 h worked out at 1.07. In addition, the half-maximal inhibitory concentration (IC50) (commonly the concentration needed to halve the response being measured) against CYP2C19 was 18 µM; against CYP 2D6, greater than 50 µM; against CYP2C9, 8.33 µM; in the series with HepG2 Cells (read-out: Absolute IC50 (μM)) it was 26.2 µM; in the series on HepG2 Cells (read-out: Relative IC50 (μM)), 16.8 µM; against hERG potassium channels, 5.39 µM. In addition, the “inhibitor grade, CYP2C19” value on CYP2C19 (human liver microsomes) is reported as “weak-moderate inhibitor”. In addition, on CYP2C9 (human liver microsomes), the “inhibitor grade, CYP2C9” value was “weak-moderate inhibitor”. Besides, in series [2] (1 mg/kg daily PO, DIO mice on HFD, after 24 days), the “reduction of the body weight” value is given as roughly 15%. In addition, the ambulatory activity result in series [2] (1 mg/kg/day continued PO, DIO mice) is on record as “did not affect”. In addition, the Hill slope (commonly the slope factor of the fitted curve) at hERG potassium channels is on record as 0.89. For the same molecule, the “potential for cardiotoxicity (QT prolongation)” value on hERG potassium channels is on record as “low”. Moreover, the “toxicity on AMES strains” value in series [3] is “no toxicity”. The “AMES result (positive/negative)” value is “negative” in series [3] (TA98, S9 no); “negative” in series [3] (TA98, S9 yes); “negative” in series [3] (TA100, S9 no); “negative” in series [3] (TA100, S9 yes). Moreover, in series [3], the “increase in reversion over the negative control” value is listed as less than 2 fold.

Turning to `Cc1ccc(C)c(OCCCC(C)(C)C(=O)NC2CCCOc3c2nn(-c2ccccc2Cl)c3-c2ccc(Cl)cc2)c1` (stereo not drawn) [BNS822, N-[2-(2-chlorophenyl)-3-(4-chlorophenyl)-5,6,7,8-tetrahydrooxepino[3,2-c]pyrazol-8-yl]-5-(2,5-dimethylphenoxy)-2,2-dimethyl-pentanamide], in series [1] (setting [4]), the Kp at 1 h is less than 0.02 and the concentration at 1 h turned out to be 1.34 ng/g. Also, the Brain/Plasma ratio in series [1] (male, C57BL/6J, mouse, in vivo, po, 10 mg/kg, 1 h) was less than 0.02. In addition, the 50% inhibitory concentration (IC50) on CYP2C19 (human liver microsomes, read-out: IC50 (μM) CYP 2C19) is greater than 50 µM. Besides, on CYP 2D6 (human liver microsomes, read-out: IC50 (μM) CYP 2D6), the IC50 was greater than 50 µM. In addition, the “inhibitor grade, CYP2C9” value against CYP2C9 (human liver microsomes) was “weak-moderate inhibitor”. For the same molecule, on CYP2C9 (human liver microsomes, read-out: IC50 (μM) CYP 2C9), the IC50 was 8.52 µM. Moreover, in series [2] (20 mg/kg continued administration, DIO mice), the weight loss is 20%. Further, in series [2] (20 mg/kg/day PO, DIO mice), the body weight entry is listed as “significantly reduced” and the food intake entry is on record as “significant decrease”. In series [2] (20 mg/kg/day PO, DIO/HFD mice), the “circulating fed insulin (plasma) levels” value is given as “significantly lower; also recorded: significant reductions”; the “glucose levels in fed and fasting conditions” value is “no change; also recorded: no significant changes”; the “glucose tolerance (GTT, AUC)” value was “improved; also recorded: significant reductions”; the “insulin sensitivity (ITT)” value is reported as “no improvement; also recorded: no significant changes”. Moreover, in series [2] (20 mg/kg/day PO, HFD mice), the ALT levels entry is “Significant reductions”, the “fat vacuoles deposition in the liver” value is “reduction”, the “liver TG content” value is reported as “Significant reductions” and the liver cholesterol entry is reported as “not”. Besides, in the series on HepG2 Cells (read-out: Absolute IC50), the IC50 was greater than 100 µM. Besides, in the series on HepG2 Cells (read-out: Relative IC50), the IC50 was greater than 100 µM. On hERG potassium channels, the “potential for cardiotoxicity (QT prolongation)” value was “low” and the IC50 was greater than 30 µM. In series [3], the “toxicity on AMES strains” value was “no toxicity” and the “increase in reversion over the negative control” value is reported as less than 2 fold. Also, the “AMES result (positive/negative)” value in series [3] (TA98, S9 no) is on record as “negative”. In series [3] (TA98, S9 yes), the “AMES result (positive/negative)” value was “negative”. Moreover, the “AMES result (positive/negative)” value in series [3] (TA100, S9 no) is recorded as “negative”. In addition, the “AMES result (positive/negative)” value in series [3] (TA100, S9 yes) was “negative”.
